# Laboratory results: patent US9474911B2, “Delivery of large molecular weight biologically active substances” (PhotoKinetix Holdings Inc., priority 2011, dated 2016)
# Where two headings read alike, the source gives them in different places.
# Columns and labels:
# [1] = diabetic rats; photokinetic delivery (Kulp et al., 2010); cited from earlier work
# [2] = 24 hours
# [3] = 450 nm light pulsed at 100 cps; 24 hours; p<0.05
substance,measurement,setting,value
"insulin: insulin, molecular weight of about 5,730 Da",blood sugar levels,[1],blood sugar levels were reduced
"HGH: Human growth hormone with a molecular weight of 22,124 Da","transdermal permeation flux of HGH, photokinetic compared to passive permeation","[2]; 350, 390, 405 and 450 nm at 24 cps, donor 270 ng/ml, p<0.001",significantly increased
"Hyaluronic acid [2,100 kDa hyaluronic acid]","transdermal flux rate, photokinetic compared to passive permeation control","[2]; 390, 405 and 450 nm at 24 cps and 405 nm at 100 cps, p<0.05",significantly higher than passive permeation control samples
same,"transdermal flux rate, 24 cps compared to 100 cps","[2]; 390 nm, 405 nm and 436 nm light, p<0.05","significantly higher than 390 nm, 405 nm, and 436 nm light pulsed at 100 cps"
Hyaluronic acid [69 kDa hyaluronic acid],"intradermal deposition, photokinetic compared to passive control",[3],significantly higher intradermal deposition
same,"transdermal flux rate, 24 cps compared to 100 cps","[2]; 405 nm light, p<0.05",significantly higher than 405 nm light pulsed at 100 cps
same,"transdermal flux rate, photokinetic compared to passive permeation",[2],significantly higher than passive permeation
